Values joined by “and” are separate entries in the source; they are usually repeats but may differ in a detail not shown here. Equal entries are not always repeated. Active and inactive are the calls of the source. No rule for the calls is given here.
Biological target: intestinal alkaline phosphatase (Mus musculus)
Experiment: mouse IAP inhibition by analogs – biochemical, luminescence, set 2, SAR follow-up (AID 588647)
Conditions: purified mouse IAP, luminescent substrate read-out

| IC50 | Compound |
| --- | --- |
| 99 µM | Cc1ccc(NC(=O)CCNS(=O)(=O)c2ccc3c(c2)oc(=O)n3C)cc1 |
| > 100 µM (inactive) | O=C(CCNS(=O)(=O)c1ccc2[nH]c(=O)oc2c1)NCc1cccc(Cl)c1 |
| > 100 µM (inactive) | O=C(N/N=C/c1c(F)cccc1Cl)c1ccc(O)cc1 |
| > 100 µM (inactive) | COc1cccc(NC(=O)CCNS(=O)(=O)c2ccc3c(c2)oc(=O)n3C)c1 |
| > 100 µM (inactive) | O=C(NN=Cc1ccccc1F)c1ccc(O)cc1 |
| > 100 µM (inactive) | O=C(CCNS(=O)(=O)c1ccc2[nH]c(=O)oc2c1)NCc1ccc(F)cc1 |
| 7.49 µM | O=C(N/N=C/c1ccccc1Cl)c1cc(O)c(O)c(O)c1 |
| 4.2 µM | O=C(CCCNS(=O)(=O)c1ccc2[nH]c(=O)oc2c1)NCCc1ccc(O)cc1 |
| > 100 µM (inactive) | N#Cc1ccc(NS(=O)(=O)c2ccc3[nH]c(=O)oc3c2)cc1 |
| > 100 µM (inactive) | COc1ccc(OC)c(NC(=O)CCNS(=O)(=O)c2ccc3c(c2)oc(=O)n3C)c1 |
| > 100 µM (inactive) | O=C(CCNS(=O)(=O)c1ccc2[nH]c(=O)oc2c1)NCc1ccccc1Cl |
| > 100 µM (inactive) | Cc1ccc(NC(=O)CCNS(=O)(=O)c2ccc3c(c2)oc(=O)n3C)c(C)c1 |
| > 100 µM (inactive) | O=C(N/N=C/c1ccccc1F)c1ccc(O)cc1 |
| 2 µM and 5.4 µM | COc1ccccc1CNC(=O)CCCNS(=O)(=O)c1ccc2[nH]c(=O)oc2c1 |
| 0.4 µM | Cc1ccc(C)c(NC(=O)CCNS(=O)(=O)c2ccc3[nH]c(=O)oc3c2)c1 |
| 8.02 µM | O=C(N/N=C/c1c(F)cccc1Cl)c1cc(O)c(O)c(O)c1 |
| > 100 µM (inactive) | CCOc1cc(C(=O)N/N=C/c2c(F)cccc2Cl)cc(OCC)c1OCC |
| > 100 µM (inactive) | Cc1ccccc1CNC(=O)C1CCCN(S(=O)(=O)c2ccc3[nH]c(=O)oc3c2)C1 (centres undefined) |
| > 100 µM (inactive) | O=c1[nH]c2ccc(S(=O)(=O)NCCc3ccc4c(c3)OCO4)cc2o1 |

Source: PubChem BioAssay AID588647 (Sanford-Burnham Center for Chemical Genomics, 2011)
